The subject of data set [1] is L929. Description: Cytotoxicity against TNF-alpha induced mouse L929 cells assessed as increase in cell survival pretreated for 12 hrs followed by TNF-alpha induction and measured after 20 hrs by MTT assay. The data set is classed as toxicity, cell-based. The conditions noted are these: l929, 32 h. (In general: Formazan colour is commonly taken as a measure of viable cells.)

Data set [2] deals with HEK293-A. Description: Inhibition of TNF-alpha induced MAPK activation in HEK293-A cells assessed as decrease in phosphorylated p38 expression at 15 to 120 uM incubated for 15 mins by Western blot analysis. The data set is classed as cell-based. The conditions noted are these: Homo sapiens, dose 15-120 µM.
Data set [3] addresses Transcription factor p65 (Homo sapiens) (UniProt Q04206). In words: Inhibition of TNF-alpha induced NF-kappaB p65 nuclear translocation in human HaCaT cells at 120 uM incubated for 10 mins DAPI staining based fluorescence microscopic analysis. The format is cell-based.
For data set [4], the system named is L929. Description: Cytotoxicity against TNF-alpha induced mouse L929 cells assessed as increase in cell survival pretreated for 12 hrs followed by TNF-alpha induction and measured after 18 to 20 hrs by MTT assay. The format is toxicity, cell-based.
Data set [5] has as its system HEK293-A. Description: Inhibition of TNF-alpha induced MAPK activation in HEK293-A cells at 15 to 120 uM by Western blot analysis. The data set is classed as cell-based. The note with it: Homo sapiens, dose 15-120 µM, time 15.0 min, TDE = time-dependent effect. (Immunoblotting shows a protein as a band on a membrane.)
The target of data set [6] is T1, Tumor necrosis factor receptor superfamily member 1B (Homo sapiens, UniProt P20333).
T1 sequence (P20333 whole entry): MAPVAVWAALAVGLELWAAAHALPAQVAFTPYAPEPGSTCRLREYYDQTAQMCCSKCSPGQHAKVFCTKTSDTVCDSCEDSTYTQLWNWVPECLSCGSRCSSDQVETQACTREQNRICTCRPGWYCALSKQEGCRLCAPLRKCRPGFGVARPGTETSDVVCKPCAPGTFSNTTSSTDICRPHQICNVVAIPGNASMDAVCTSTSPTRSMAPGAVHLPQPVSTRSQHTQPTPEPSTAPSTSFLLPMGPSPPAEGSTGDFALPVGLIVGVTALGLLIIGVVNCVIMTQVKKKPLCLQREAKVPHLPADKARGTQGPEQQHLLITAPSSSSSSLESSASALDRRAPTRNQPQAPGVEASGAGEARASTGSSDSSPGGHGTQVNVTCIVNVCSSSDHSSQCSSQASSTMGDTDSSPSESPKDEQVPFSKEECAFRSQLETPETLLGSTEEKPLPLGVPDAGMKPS
In words: Competitive Inhibition of TNF-alpha binding to human recombinant TNFR2 incubated for 1 hr by ELISA analysis. (In an ELISA, binding on a coated surface is turned into a signal by an enzyme label.)

Data set [7] addresses T2, Nuclear factor NF-kappa-B complex (Homo sapiens) (UniProt Q00653+P19838+Q04206). In words: Inhibition of TNF-alpha induced NF-kappaB activation in HEK293-A cells at 15 to 120 uM by Western blot analysis. The data set is classed as cell-based. The conditions noted are these: dose 15-120 µM, time 15.0 min, TDE = time-dependent effect.
For data set [8], the system named is HT-29. Description: Antiinflammatory activity in human HT-29 cells assessed as downregulation of TNF-alpha-induced IFN-gamma mRNA expression incubated for 6 hrs by RT-PCR analysis. The format is functional, cell-based. The note with it: dose 15-20 µM.
Data set [9] relates to HEK293-A. Description: Inhibition of TNF-alpha induced MAPK activation in HEK293-A cells assessed as decrease in phosphorylated ERK expression at 15 to 120 uM incubated for 15 mins by Western blot analysis. The conditions noted are these: Homo sapiens, dose 15-120 µM. The data set is classed as cell-based.
Data set [10] has as its system HEK293-A. Description: Inhibition of TNF-alpha induced MAPK activation in HEK293-A cells incubated for 15 mins by Western blot analysis. The data set is classed as cell-based. The note with it: Homo sapiens, dose 15-120 µM.
Data set [11] concerns HT-29. In words: Antiinflammatory activity in human HT-29 cells assessed as downregulation of TNF-alpha-induced IL-1beta mRNA expression incubated for 6 hrs by RT-PCR analysis. The conditions noted are these: dose 15-20 µM. The format is functional, cell-based.
In data set [12] the test system is HT-29. Description: Antiinflammatory activity in human HT-29 cells assessed as downregulation of TNF-alpha-induced ICAM mRNA expression incubated for 6 hrs by RT-PCR analysis. The note with it: dose 15-20 µM. The data set is classed as functional, cell-based.
Data set [13] concerns HT-29. In words: Antiinflammatory activity in human HT-29 cells assessed as downregulation of TNF-alpha-induced IL-8 mRNA expression incubated for 6 hrs by RT-PCR analysis. The conditions noted are these: dose 15-20 µM. The data set is classed as functional, cell-based.
For data set [14], the target named is T2, Nuclear factor NF-kappa-B complex (Homo sapiens). In words: Inhibition of TNF-alpha induced NF-kappaB activation in HEK293-A cells incubated for 15 mins by Western blot analysis. The data set is classed as cell-based. The conditions noted are these: dose 15-120 µM.
For data set [15], the target named is Transcription factor p65 (Homo sapiens) (UniProt Q04206). In words: Inhibition of TNF-alpha induced NF-kappaB p65 nuclear translocation in human HaCaT cells at 30 to 120 uM incubated for 10 mins DAPI staining based fluorescence microscopic analysis. The format is cell-based. The conditions noted are these: dose 30-120 µM.
Sequence of Transcription factor p65 (Homo sapiens) (Q04206 whole entry): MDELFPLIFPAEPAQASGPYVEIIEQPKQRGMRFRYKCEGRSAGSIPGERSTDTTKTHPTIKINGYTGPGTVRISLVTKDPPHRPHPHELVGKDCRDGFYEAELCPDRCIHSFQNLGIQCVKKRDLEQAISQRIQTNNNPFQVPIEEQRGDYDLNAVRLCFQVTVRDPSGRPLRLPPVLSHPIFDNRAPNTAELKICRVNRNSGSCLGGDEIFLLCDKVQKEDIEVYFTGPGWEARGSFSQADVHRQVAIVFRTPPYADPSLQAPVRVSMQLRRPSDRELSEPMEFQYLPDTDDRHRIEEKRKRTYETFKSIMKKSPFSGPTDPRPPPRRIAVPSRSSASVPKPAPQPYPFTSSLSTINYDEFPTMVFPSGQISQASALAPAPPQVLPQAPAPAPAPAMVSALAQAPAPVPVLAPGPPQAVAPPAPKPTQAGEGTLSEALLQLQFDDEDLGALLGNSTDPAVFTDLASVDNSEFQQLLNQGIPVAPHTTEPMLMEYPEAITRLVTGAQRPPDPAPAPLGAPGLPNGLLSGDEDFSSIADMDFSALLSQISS
In data set [16] the target is T2, Nuclear factor NF-kappa-B complex (Homo sapiens). In words: Inhibition of TNF-alpha induced NF-kappaB activation in HEK293-A cells assessed as decrease in phosphorylated IkappaB level at 15 to 120 uM incubated for 15 mins by Western blot analysis. The data set is classed as cell-based. The note with it: dose 15-120 µM.
Data set [17] has as its system HEK293-A. In words: Inhibition of TNF-alpha induced MAPK activation in HEK293-A cells assessed as decrease in phosphorylated JNK expression at 15 to 120 uM incubated for 15 mins by Western blot analysis. The data set is classed as cell-based. The conditions noted are these: Homo sapiens, dose 15-120 µM.
The target in data set [18] is T3, Tumor necrosis factor receptor superfamily member 1A (Homo sapiens, UniProt P19438).
T3 sequence (P19438 whole entry): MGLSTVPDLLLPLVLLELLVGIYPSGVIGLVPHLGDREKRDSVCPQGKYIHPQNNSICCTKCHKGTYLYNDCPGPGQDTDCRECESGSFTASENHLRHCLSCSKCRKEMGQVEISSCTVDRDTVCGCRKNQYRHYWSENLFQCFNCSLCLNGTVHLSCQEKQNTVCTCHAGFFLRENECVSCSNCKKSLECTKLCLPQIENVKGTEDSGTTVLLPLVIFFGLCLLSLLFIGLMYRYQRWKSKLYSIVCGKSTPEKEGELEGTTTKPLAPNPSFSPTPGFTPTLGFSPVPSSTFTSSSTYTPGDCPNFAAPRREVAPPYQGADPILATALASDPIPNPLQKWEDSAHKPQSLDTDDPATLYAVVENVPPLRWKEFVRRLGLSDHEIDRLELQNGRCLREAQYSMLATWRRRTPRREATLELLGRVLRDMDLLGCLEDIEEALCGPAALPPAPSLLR
In words: Competitive Inhibition of TNF-alpha binding to human recombinant TNFR1 incubated for 1 hr by ELISA analysis.

Active and inactive are the calls of the source. The rule behind the calls is not given here. Numbered stars: 1 amine (or outer) side, 2 acyl side, 3 side chain; on linkers, the order of the positions; unused ones are H or OH. Bridge positions count the residues as written; N and C are the ends. Square brackets hold non-standard residues; d marks the D form. Peptide text beside a SMILES is read from it. I, II: the chains in the order shown. Actinocin(9to1) = Cc1c2oc3c(C)ccc(C(=O)[*:1])c3nc-2c(C(=O)[*:2])c(N)c1=O; NMeV = CN[C@H](C(=O)O)C(C)C; Sar = CNCC(=O)O

T2 sequence (P19838 whole entry, looked up): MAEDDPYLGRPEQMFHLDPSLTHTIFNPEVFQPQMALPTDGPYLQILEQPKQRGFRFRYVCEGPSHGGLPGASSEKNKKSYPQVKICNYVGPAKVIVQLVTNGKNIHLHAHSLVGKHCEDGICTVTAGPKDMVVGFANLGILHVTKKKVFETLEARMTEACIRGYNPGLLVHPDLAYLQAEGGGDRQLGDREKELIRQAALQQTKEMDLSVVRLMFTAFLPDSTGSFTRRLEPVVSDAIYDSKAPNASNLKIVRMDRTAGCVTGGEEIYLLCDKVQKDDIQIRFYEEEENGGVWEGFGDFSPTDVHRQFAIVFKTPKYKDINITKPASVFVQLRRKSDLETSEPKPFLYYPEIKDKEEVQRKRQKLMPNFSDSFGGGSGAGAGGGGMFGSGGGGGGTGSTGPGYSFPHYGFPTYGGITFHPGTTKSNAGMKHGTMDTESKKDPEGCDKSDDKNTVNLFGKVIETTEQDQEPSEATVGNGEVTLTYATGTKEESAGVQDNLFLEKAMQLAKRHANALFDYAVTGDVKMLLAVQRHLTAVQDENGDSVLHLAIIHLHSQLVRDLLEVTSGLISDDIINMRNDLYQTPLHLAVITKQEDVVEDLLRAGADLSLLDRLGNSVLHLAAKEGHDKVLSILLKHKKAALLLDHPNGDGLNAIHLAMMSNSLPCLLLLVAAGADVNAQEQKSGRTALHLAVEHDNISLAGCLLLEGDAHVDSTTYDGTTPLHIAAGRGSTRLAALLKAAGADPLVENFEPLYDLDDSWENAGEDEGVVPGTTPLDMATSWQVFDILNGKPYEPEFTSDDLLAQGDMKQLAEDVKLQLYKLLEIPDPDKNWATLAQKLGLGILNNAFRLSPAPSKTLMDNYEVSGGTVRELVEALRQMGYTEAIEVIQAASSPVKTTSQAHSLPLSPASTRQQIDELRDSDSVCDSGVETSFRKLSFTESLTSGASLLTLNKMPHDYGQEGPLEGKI
T2 sequence (Q00653 whole entry, looked up): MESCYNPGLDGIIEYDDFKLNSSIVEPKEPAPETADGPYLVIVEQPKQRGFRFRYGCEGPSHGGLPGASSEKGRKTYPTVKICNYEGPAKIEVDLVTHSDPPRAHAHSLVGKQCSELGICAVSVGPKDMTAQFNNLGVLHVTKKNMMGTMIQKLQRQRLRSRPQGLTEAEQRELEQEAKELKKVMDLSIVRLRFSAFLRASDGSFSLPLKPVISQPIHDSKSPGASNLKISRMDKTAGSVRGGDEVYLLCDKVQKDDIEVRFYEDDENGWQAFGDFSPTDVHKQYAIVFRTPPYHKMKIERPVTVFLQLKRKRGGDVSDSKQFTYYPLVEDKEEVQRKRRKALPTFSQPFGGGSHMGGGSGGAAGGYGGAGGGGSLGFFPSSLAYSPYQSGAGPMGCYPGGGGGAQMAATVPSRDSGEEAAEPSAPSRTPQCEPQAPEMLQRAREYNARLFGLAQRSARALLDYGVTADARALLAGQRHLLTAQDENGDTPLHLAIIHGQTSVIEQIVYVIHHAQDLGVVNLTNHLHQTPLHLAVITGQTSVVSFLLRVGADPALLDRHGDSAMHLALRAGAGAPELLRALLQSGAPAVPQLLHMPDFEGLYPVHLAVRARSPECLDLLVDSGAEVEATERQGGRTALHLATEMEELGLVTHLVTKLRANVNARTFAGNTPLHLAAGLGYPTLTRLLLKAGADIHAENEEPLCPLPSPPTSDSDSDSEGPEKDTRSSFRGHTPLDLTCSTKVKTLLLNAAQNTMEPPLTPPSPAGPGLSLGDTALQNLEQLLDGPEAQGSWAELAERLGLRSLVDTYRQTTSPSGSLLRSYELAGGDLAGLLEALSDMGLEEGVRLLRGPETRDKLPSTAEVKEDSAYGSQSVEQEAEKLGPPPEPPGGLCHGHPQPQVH
T2 sequence (Q04206 whole entry, looked up): as the sequence (Q04206 whole entry) above

`Cc1c2oc3c(C)ccc(C(=O)N[C@@H]4C(=O)N[C@H](C(C)C)C(=O)N5CCC[C@H]5C(=O)N(C)CC(=O)N(C)[C@@H](C(C)C)C(=O)O[C@@H]4C)c3nc-2c(C(=O)N[C@@H]2C(=O)N[C@H](C(C)C)C(=O)N3CCC[C@H]3C(=O)N(C)CC(=O)N(C)[C@@H](C(C)C)C(=O)O[C@@H]2C)c(N)c1=O` [DACTINOMYCIN] (I: T[dV]P[Sar][NMeV] / II: T[dV]P[Sar][NMeV]; ester I:1-I:C, II:1-II:C; linker I:N-II:N via Actinocin(9to1)): the Activity in the data set on L929 [1] is 70%.
By IC50 is commonly meant the concentration at which inhibition is half-maximal. As usually defined, the EC50 is the midpoint of the concentration-response curve. For H-DEFHLELHLYQSW-OH, the inhibition result (with HEK293-A [2]; in data set [3]; in the data set on HEK293-A [9]; in data set [15]; in data set [16]; in the data set on HEK293-A [17]) was “Active” in each case. Moreover, the half-inhibitory concentration (IC50) in the data set on L929 [4] stood at 15.4 µM. Besides, the inhibition result is “Tde” in the data set with HEK293-A [5], “Tde” in data set [7], “Dose-Dependent Effect” in the data set on HEK293-A [10] and “Dose-Dependent Effect” in data set [14]. Further, the EC50 in data set [6] was 17 µM; in [18] it was 7.25 µM. In addition, the Activity entry in the data set with HT-29 [8], in the data set on HT-29 [11], in the data set on HT-29 [12] and in the data set on HT-29 [13] was “Dose-Dependent Effect” each time.

The values above are taken from ChEMBL document CHEMBL5325507, “A TNF-α blocking peptide that reduces NF-κB and MAPK activity for attenuating inflammation” (Bioorg Med Chem, 2023).
